pEC50, pIC50: −log10 of the molar value.
Legend:
GLP-1R = target: T1, GLP-1R (Homo sapiens, UniProt P43220); assay: EndoC cAMP accumulation assay (HTRF, EndoC-βH1 cells); format: cell-based; details: EndoC-βH1 human pancreatic β cell line
T1 construct: host or cells: EndoC-βH1
Source text: EndoC cAMP Accumulation Assay
A HTRF cAMP assay (cAMP Gs dynamic kit; CisoBio Cat #62AM4PEJ) was used to identify agonists of GLP-1R in a pancreatic insulinoma cell line (EndoC-PH1). […] EndoC-βH1 cells have detectable GLP-1R messenger ribonucleic acid (mRNA) as detected by quantitative polymerase chain reaction (qPCR). […] The EndoC-βH1 cell line is a valid model of human beta cells and applicable for screenings to identify novel drug target candidates (Mol. Metab., 2018, 8, 144-157). CisBio HTRF cAMP kits are based on a competitive immunoassay using cryptate-labelled anti-cAMP antibody and d2-labeled cAMP. The detection kit is intended for the direct quantitative determination of cAMP. The specific signal (i.e. energy transfer) is inversely proportional to the concentration of cAMP in the standard or sample. Test compounds (10 mM in DMSO) were diluted into assay buffer (HBSS (Sigma #H8264) supplemented with 25 mM HEPES (Gibco #15630, pH 7.4), 0.1% BSA (Sigma #A3059) and 0.5 mM IBMX (Sigma #I7018) included fresh on the day of the assay) into 96 well U-bottom plates (Greiner #650201). Diluted compounds were transferred to ECHO source polypropelene plates (Labcyte #P-05525) and dose response curves were dispensed acoustically using ECHO 550 into black shallow-well u-bottom 384-well HTRF Assay Plates (Corning 4514).
Cryovials of EndoC-H1 (supplied at 1×10e^7 cells/vial) were used directly for screening. The cryovials and were removed from N2(l) and thawed rapidly in a 37° C. water bath. The cells were resuspended in assay buffer and centrifuged at 300 g for 5 min. Cells were resuspended in assay buffer at the appropriate concentration, typically at 12e5 cells per mL (3000 cells per well, dependent on cell batch) and 2.5 μL diluted cells were added to all wells of destination plate by Multidrop combi reagent dispenser (Thermofisher). The plates were incubated at rt for 30 min. The assay was stopped by adding 2.5 μL anti-cAMP cryptate solution to all wells and 2.5 μL cAMP-d2 solution (both diluted 1:20 in lysis buffer) to columns 1-22 by Combi drop. A volume of 2.5 μL cAMP-d2 solution was added to wells E23 to P24 and 2.5 μL lysis buffer added to wells A23 to D24 by multichannel pipette. The plates were incubated at rt for 1 h and read on an Envision plate reader using excitation wavelength of 320 nm and emission of 590 nm and 660 nm.
Raw data from Envision is converted to % DeltaF according to the manufacturer's instructions. Dose response curves are analysed via 4-Parameter Logistical Analysis and assay plate Z′ values obtained. Samples are graphed as percentage (%) activation plots compared to GIP (1-42, Bachem H-5645) with assay window defined by negative control as basal cell cAMP levels and positive control are defined by maximum GIP (82.5 nM) signal. GLP-1 (7-36 amide, Bachem H-6795) dose response curve was included on all plates.

human GLP-1R receptor = target: T2, human GLP-1R receptor (Homo sapiens, UniProt P43220, L260F); assay: CHOK1 GLP-1R cAMP assay (HTRF); format: cell-based; details: CHO-K1 cells stably expressing human GLP-1R
T2 construct: expressed in transfected cells; host or cells: CHO-K1 (ATCC CCL-61)
T2 sequence (P43220 24-463 L260F): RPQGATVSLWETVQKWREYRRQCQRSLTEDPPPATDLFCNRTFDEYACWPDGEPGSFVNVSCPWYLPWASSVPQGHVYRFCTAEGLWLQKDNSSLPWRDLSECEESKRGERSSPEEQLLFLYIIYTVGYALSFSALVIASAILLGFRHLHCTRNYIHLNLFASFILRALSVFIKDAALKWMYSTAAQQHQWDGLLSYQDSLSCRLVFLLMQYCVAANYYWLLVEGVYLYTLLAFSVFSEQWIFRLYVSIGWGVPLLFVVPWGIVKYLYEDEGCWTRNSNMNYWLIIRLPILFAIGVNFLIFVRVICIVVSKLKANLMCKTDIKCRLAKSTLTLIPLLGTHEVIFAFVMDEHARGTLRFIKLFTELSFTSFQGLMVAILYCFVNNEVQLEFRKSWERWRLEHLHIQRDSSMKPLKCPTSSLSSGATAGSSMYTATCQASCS
Method: A cell line stably expressing the human GLP-1R receptor (NM_002062.5, including the naturally-occurring variant Leu260Phe) in a CHO-K1 (ATCC® CCL-61™) was used for assay.
GLP-1 receptor mediated agonist activity was determined in a cell-based assay measuring cyclic adenosine monophosphate (cAMP) levels in cells using Homogeneous Time-Resolved Fluorescence (HTRF) cAMP detection kit (CisBio catalog #62AM4PEC, cAMP Gs Dynamic range kit). The cAMP detection method is based on a competitive immunoassay, in which cAMP produced by the cells and cAMP labeled with the dye d2 compete for binding to a Europium-Cryptate-labeled anti-cAMP antibody. The specific HTRF signal is inversely proportional to the concentration of cAMP.
Compounds were added to individual well in 384 well-assay plates (Greiner #784076) using an Echo (LabCyte) dispenser from 10 mM stocks. Varying concentration of compounds were added to wells, and DMSO was used to normalize each well to a volume of 100 nL. A dose response curve of GLP-1(7-36)NH2 (Bachem H-6795) was included in each run. 5 μL of cAMP concentration response standards are applied in specified wells in the assay plates. Cryo-preserved cells are thawed and resuspended in assay buffer pre-heated to 37° C. (20 mM 2-[4-(2-hydroxyethyl)piperazin-1-yl]ethanesulfonic acid (HEPES) pH 7.4, lx Hank's Balanced Salt Solution (HBSS, Life Technologies #14065) supplemented with 0.1% (w/v) bovine serum albumin (Sigma, A-7030)). Cells were centrifuged at 250*g for 5 min at rt, and resuspended in room tempered assay buffer to a final density of 0.16*10^6 cell/mL, to deliver 800 cells/well. 5 μL of assay buffer with 1 mM 3-isobutyl-1-methylxanthin (IBMX; Sigma cat I-7018) was dispensed per well in assay plates using a multidrop combi (Thermo Scientific) subsequently 5 μL of cell suspension was distributed to relevant wells in the assay using a multidrop dispenser. Assay plates were incubated 20 min at rt.
Detection reagents, Europium-Cryptate-labeled anti-cAMP antibody and cAMP labeled with the dye d2, are diluted in lysis buffer, provided by the manufacturer. 5 μL of each detection reagent is supplemented to each assay well using a multidrop dispenser. Assay plates are incubated in the dark for at least one h. The HTRF signal is measured using the HTRF module (excitation: 337 nm, emission A: 665 nm and emission B: 620 nm) in Pherastar FSX (BMG Labtech).
Raw data were converted to pM cAMP using the cAMP standard curve included in each run. Converted data were further analyzed in Genedata Screener (Genedata) and EC50 determinations were made from agonist dose-response curves analyzed with a curve fitting program using a 4-parameter logistic dose response equation (Equation y=A+((B−A)/1+((C/x)^D))) where A is no stimulation, B is full stimulation, C is the EC50 and D is the Hill slope). The percent effect was determined relative to a saturating concentration of a full GLP-1R agonist (GLP-1(7-36)NH2 has 100% effect in this assay setup).

[1] = target: T3, human phosphodiesterase-3A (Homo sapiens, UniProt Q14432); assay: PDE3 assay (formation of 5'AMP from cAMP, SPA); format: biochemical; details: human recombinant enzyme expressed in Sf9 cells
T3 construct: host or cells: Sf9 (Spodoptera frugiperda)
T3 sequence (Q14432 whole entry): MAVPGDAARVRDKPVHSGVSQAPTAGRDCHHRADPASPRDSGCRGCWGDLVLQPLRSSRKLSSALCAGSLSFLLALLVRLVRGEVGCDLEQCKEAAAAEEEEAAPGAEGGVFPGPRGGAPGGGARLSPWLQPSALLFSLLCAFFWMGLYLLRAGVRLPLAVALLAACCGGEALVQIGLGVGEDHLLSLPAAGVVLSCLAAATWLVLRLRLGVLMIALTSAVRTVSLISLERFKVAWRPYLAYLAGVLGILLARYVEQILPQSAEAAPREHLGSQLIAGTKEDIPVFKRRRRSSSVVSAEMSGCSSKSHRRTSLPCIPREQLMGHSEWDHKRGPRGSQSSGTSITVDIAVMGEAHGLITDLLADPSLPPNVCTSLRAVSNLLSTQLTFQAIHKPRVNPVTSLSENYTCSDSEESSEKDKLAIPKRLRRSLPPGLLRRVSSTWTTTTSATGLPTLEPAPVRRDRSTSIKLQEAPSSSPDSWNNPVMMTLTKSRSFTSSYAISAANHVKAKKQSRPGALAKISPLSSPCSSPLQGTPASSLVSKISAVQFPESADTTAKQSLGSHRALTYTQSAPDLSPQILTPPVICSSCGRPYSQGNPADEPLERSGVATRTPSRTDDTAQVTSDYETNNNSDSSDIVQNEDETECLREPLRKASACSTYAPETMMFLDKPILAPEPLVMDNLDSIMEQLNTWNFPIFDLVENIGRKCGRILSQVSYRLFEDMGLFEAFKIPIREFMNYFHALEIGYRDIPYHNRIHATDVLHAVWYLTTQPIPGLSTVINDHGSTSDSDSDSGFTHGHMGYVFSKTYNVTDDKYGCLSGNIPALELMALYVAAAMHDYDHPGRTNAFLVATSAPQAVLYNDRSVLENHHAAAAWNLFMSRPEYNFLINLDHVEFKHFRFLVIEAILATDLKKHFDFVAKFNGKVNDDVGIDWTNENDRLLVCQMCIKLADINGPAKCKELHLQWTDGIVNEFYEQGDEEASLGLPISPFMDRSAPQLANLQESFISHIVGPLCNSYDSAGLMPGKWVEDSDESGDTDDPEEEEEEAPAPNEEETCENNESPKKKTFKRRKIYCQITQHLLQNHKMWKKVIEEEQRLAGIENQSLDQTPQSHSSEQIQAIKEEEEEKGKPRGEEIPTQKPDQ
Method: Evaluation of the effects of compounds on the activity of the human phosphodiesterase-3A is quantified by measuring the formation of 5′AMP from cAMP using a human recombinant enzyme expressed in a clonal isolate of Spodoptera frugiperda cells (Sf9) cells.
The test compound, reference compound or water (control) are added to a buffer containing 40 mM tris(hydroxymethyl)aminomethane (Tris)/HCl (pH 7.4) and 8 mM MgCl2, 450 nMcAMP and 0.25 μCi [3H]cAMP.
Thereafter, the reaction is initiated by addition of the enzyme (about 1 U) and the mixture is incubated for 20 min at 22° C.
For basal control measurements, the enzyme is omitted from the reaction mixture.
Following incubation SPA beads are added. After 30 min at 22° C. under shaking, the amount of [^3H]5′AMP is quantified with a scintillation counter (Topcount, Packard).
The results are expressed as a percent inhibition of the control enzyme activity. The standard inhibitory reference compound is milrinone (CAS number 78415-72-2), which is tested in each experiment at several concentrations to obtain an inhibition curve from which its IC50 value is calculated.

T1 sequence (P43220 24-463): as the sequence (P43220 24-463 L260F) above, with F237L counted along it

| SMILES | pEC50 (GLP-1R) | pEC50 (human GLP-1R receptor) | pIC50 [1] |
| --- | --- | --- | --- |
| COc1cc(C(=O)O)cc2c1nc(CN1CCN(c3cccc(OCc4ccc(C#N)cc4F)n3)[C@H]3CC[C@@H]31)n2C[C@@H]1CCO1 (single isomer, unassigned) [Example 4b, 2-(((1R*,6R*)-5-(6-((4-Cyano-2-fluorobenzyl)oxy)pyridin-2-yl)-2,5-diazabicyclo[4.2.0]octan-2-yl)methyl)-4-methoxy-1-(((S)-oxetan-2-yl)methyl)-1H-benzo[d]imidazole-6-carboxylic acid] | 8.52 | 9.22 | 5.19 |
| COc1cc(C(=O)O)cc2c1nc(CN1CCN(c3cccc(OCc4ccc(C#N)cc4F)n3)[C@H]3CC[C@@H]31)n2C[C@@H]1CCO1 (single isomer, unassigned) [Example 4a, 2-(((1R*,6R*)-5-(6-((4-Cyano-2-fluorobenzyl)oxy)pyridin-2-yl)-2,5-diazabicyclo[4.2.0]octan-2-yl)methyl)-4-methoxy-1-(((S)-oxetan-2-yl)methyl)-1H-benzo[d]imidazole-6-carboxylic acid] | 8.26 | 8.40 | 5.42 |
| COc1cc(C(=O)O)cc2c1nc(CN1CCN(c3cccc(OCc4ccc(Cl)cc4F)n3)[C@H]3CC[C@@H]31)n2C[C@@H]1CCO1 (single isomer, unassigned) [Example 5b, 2-(((1R*,6R*)-5-(6-((4-Chloro-2-fluorobenzyl)oxy)pyridin-2-yl)-2,5-diazabicyclo[4.2.0]octan-2-yl)methyl)-4-methoxy-1-(((S)-oxetan-2-yl)methyl)-1H-benzo[d]imidazole-6-carboxylic acid] | 8.68 | 9.30 | < 4.00 |
| N#Cc1ccc(COc2cccc(N3CCN(Cc4nc5c(Cl)cc(C(=O)O)cc5n4C[C@@H]4CCO4)[C@H]4CC[C@H]43)n2)c(F)c1 (single isomer, unassigned) [Example 6a] | 8.72 | 9.22 | 5.54 |
| N#Cc1ccc(COc2cccc(C3CCN(Cc4nc5ccc(C(=O)O)cc5n4C[C@@H]4CCO4)CC3)n2)c(F)c1 [Ref Comp B, reference compound] |  |  | 4.96 |
| N#Cc1ccc(COc2cccc(N3CCN(Cc4nc5c(Cl)cc(C(=O)O)cc5n4C[C@@H]4CCO4)[C@H]4CC[C@H]43)n2)c(F)c1 (single isomer, unassigned) [Example 6d] | 8.62 | 8.46 | 5.52 |
| N#Cc1ccc(COc2cccc(N3CCN(Cc4nc5c(F)cc(C(=O)O)cc5n4C[C@@H]4CCO4)[C@H]4CC[C@@H]43)n2)c(F)c1 (single isomer, unassigned) [Example 3b, 2-(((1R*,6R*)-5-(6-((4-Cyano-2-fluorobenzyl)oxy)pyridin-2-yl)-2,5-diazabicyclo[4.2.0]octan-2-yl)methyl)-4-fluoro-1-(((S)-oxetan-2-yl)methyl)-1H-benzo[d]imidazole-6-carboxylic acid] | 8.06 | 8.96 | 4.96 |
| COc1cc(C(=O)O)cc2c1nc(CN1CCN(c3cccc(OCc4ccc(Cl)cc4F)n3)[C@@H]3COC[C@@H]31)n2C[C@@H]1CCO1 (single isomer, unassigned) [Example 16a, 2-(((4aR*,7aS*)-4-(6-((4-Chloro-2-fluorobenzyl)oxy)pyridin-2-yl)hexahydrofuro[3,4-b]pyrazin-1(2H)-yl)methyl)-4-methoxy-1-(((S)-oxetan-2-yl)methyl)-1H-benzo[d]imidazole-6-carboxylic acid] | 8.72 | 9.20 | 4.54 |
| N#Cc1ccc(COc2cccc(N3CCN(Cc4nc5cc(Cl)c(C(=O)O)cc5n4C[C@@H]4CCO4)[C@H]4CC[C@H]43)n2)c(F)c1 (single isomer, unassigned) [Example 7a] | 8.14 | 8.03 | 5.66 |
| N#Cc1ccc(COc2cccc(N3CCN(Cc4nc5c(Cl)cc(C(=O)O)cc5n4C[C@@H]4CCO4)[C@H]4CC[C@H]43)n2)c(F)c1 (single isomer, unassigned) [Example 6c] | 8.25 | 8.09 | 5.60 |
| N#Cc1ccc(COc2cccc(N3CCN(Cc4nc5ccc(C(=O)O)cc5n4C[C@@H]4CCO4)[C@H]4COC[C@H]43)n2)c(F)c1 (racemic) [Example 17, 2-(((4aRS,7aSR)-4-(6-((4-Cyano-2-fluorobenzyl)oxy)pyridin-2-yl)hexahydrofuro[3,4-b]pyrazin-1(2H)-yl)methyl)-1-(((S)-oxetan-2-yl)methyl)-1H-benzo[d]imidazole-6-carboxylic acid] | 7.85 | 8.70 | 5.46 |
| N#Cc1ccc(COc2cccc(N3CCN(Cc4nc5cc(F)c(C(=O)O)cc5n4C[C@@H]4CCO4)[C@H]4CC[C@@H]43)n2)c(F)c1 (single isomer, unassigned) [Example 9b] | 7.57 | 8.68 | 5.34 |

From US20250115612A1, “CERTAIN 2,5-DIAZABICYCLO[4.2.0]OCTANES AND OCTAHYDROFURO[3,4-B]PYRAZINES AS GLP-1 RECEPTOR MODULATORS” (ASTRAZENECA AB, priority 2021, published 2025)
